{"source": "patent US20190314382A1", "about": "“COMPOUNDS AND PHARMACEUTICAL COMPOSITIONS THEREOF FOR THE TREATMENT OF INFLAMMATORY DISEASES” (Galapagos NV, priority 2016, published 2019)", "key": {"IL-12 (p70)": {"test_system": "IL-12 (p70)", "experiment": "Biomarker study in RA subjects: serum IL-12, Luminex 18-Plex", "format": "in vivo, human", "conditions": "observed case", "protocol": "(§1) Double-blind, placebo-controlled add on study in subjects with moderately to severely active RA who have an inadequate response to MTX (oral or parenteral).\n(§2) 595 subjects randomized to one of 6 dose regimens of Compound 1 (dosed as a [Compound 1:HCl:3H2O]) (3 dose levels administered either once or twice daily) or placebo on top of each subject's stable dose of MTX.\n(§3) Compound 1 (dosed as a [Compound 1:HCl:3H2O]) is dosed for twelve weeks once daily (q.d.) (50 mg, 100 mg or 200 mg) or twice daily (b.i.d.) (25 mg, 50 mg or 100 mg); or placebo.\n(§4) 18 parameters from human serum samples (GM-CSF, IFNγ, IL-1β, IL-2, IL-4, IL-5, IL-6, IL-7, IL-8, IL-10, IL-12 (p70), IL-13, IL-17A, IL-21, IL-23, MIP-1α, MIP-1β and TNF-α) are analyzed on a Luminex Plateform (BioPlex® L200) using a Luminex 18-Plex Kit (Millipore: HSTCMAG-28SK).\n(§5) Coupled beads react with the sample containing the biomarker of interest. […] Phycoerythrin (PE) serves as a fluorescent indicator.\n(§6) The concentration of bead bound analyte is proportional to the MFI (Median Fluorescent Intensity) and back-calculated from interpolation with the calibration curve fitted with a 4 or 5 parameters logistic (4PL or 5PL) regression model selected during method pre-validation.\n(§7) Treatment effect was assessed using an ANCOVA model on the changes from baseline, with factors: treatment, baseline value of the PD marker, geographical region and previous use of biologics."}, "TNF-α": {"test_system": "TNF-α", "experiment": "Biomarker study in RA subjects: serum TNF-α, Luminex 18-Plex", "format": "in vivo, human", "conditions": "observed case", "protocol": "as §1, §2, §3, §4, §5, §6, §7"}, "IFNγ": {"test_system": "IFNγ", "experiment": "Biomarker study in RA subjects: serum IFNγ, Luminex 18-Plex", "format": "in vivo, human", "conditions": "observed case", "protocol": "as §1, §2, §3, §4, §5, §6, §7"}, "[1]": {"conditions": "cited from earlier work"}, "IL-5": {"test_system": "IL-5", "experiment": "Biomarker study in RA subjects: serum IL-5, Luminex 18-Plex", "format": "in vivo, human", "conditions": "observed case", "protocol": "as §1, §2, §3, §4, §5, §6, §7"}, "IL-2": {"test_system": "IL-2", "experiment": "Biomarker study in RA subjects: serum IL-2, Luminex 18-Plex", "format": "in vivo, human", "conditions": "observed case", "protocol": "as §1, §2, §3, §4, §5, §6, §7"}, "MIP-1α": {"test_system": "MIP-1α", "experiment": "Biomarker study in RA subjects: serum MIP-1α, Luminex 18-Plex", "format": "in vivo, human", "conditions": "observed case", "protocol": "as §1, §2, §3, §4, §5, §6, §7"}, "IL-17A": {"test_system": "IL-17A", "experiment": "Biomarker study in RA subjects: serum IL-17A, Luminex 18-Plex", "format": "in vivo, human", "conditions": "observed case", "protocol": "as §1, §2, §3, §4, §5, §6, §7"}, "[2]": {"conditions": "50 mg bid, Week 4, N = 73, RA subjects on MTX"}, "[3]": {"conditions": "50 mg bid, Week 12, N = 73, RA subjects on MTX"}, "[4]": {"conditions": "100 mg bid, Week 4, N = 79, RA subjects on MTX"}, "[5]": {"conditions": "100 mg bid, Week 12, N = 79, RA subjects on MTX"}, "[6]": {"conditions": "100 mg qd, Week 4, N = 68, RA subjects on MTX"}, "[7]": {"conditions": "100 mg qd, Week 12, N = 68, RA subjects on MTX"}, "[8]": {"conditions": "200 mg qd, Week 4, N = 75, RA subjects on MTX"}, "[9]": {"conditions": "200 mg qd, Week 12, N = 75, RA subjects on MTX"}}, "data": [{"smiles": "O=C(Nc1nc2cccc(-c3ccc(CN4CCS(=O)(=O)CC4)cc3)n2n1)C1CC1", "note": "[Compound 1, cyclopropanecarboxylic acid {5-[4-(1,1-dioxo-thiomorpholin-4-ylmethyl)-phenyl]-[1,2,4]triazolo[1,5-a]pyridin-2yl}-amide]", "values": [{"measurement": "IL-12 Mean change from baseline at Week 4", "setting": "IL-12 (p70); [2]", "value": -1.9, "unit": "pg/mL"}, {"measurement": "IL-12 Mean change from baseline at Week 12", "setting": "IL-12 (p70); [3]", "value": -2.3, "unit": "pg/mL"}, {"measurement": "IL-12 Mean change from baseline at Week 4", "setting": "IL-12 (p70); [4]", "value": -2.3, "unit": "pg/mL"}, {"measurement": "IL-12 Mean change from baseline at Week 12", "setting": "IL-12 (p70); [5]", "value": -3.9, "unit": "pg/mL"}, {"measurement": "IL-12 Mean change from baseline at Week 4", "setting": "IL-12 (p70); [6]", "value": -0.2, "unit": "pg/mL"}, {"measurement": "IL-12 Mean change from baseline at Week 12", "setting": "IL-12 (p70); [7]", "value": -1.2, "unit": "pg/mL"}, {"measurement": "IL-12 Mean change from baseline at Week 4", "setting": "IL-12 (p70); [8]", "value": -1.7, "unit": "pg/mL"}, {"measurement": "IL-12 Mean change from baseline at Week 12", "setting": "IL-12 (p70); [9]", "value": 20.5, "unit": "pg/mL"}, {"measurement": "TNFα Mean change from baseline at Week 4", "setting": "TNF-α; [2]", "value": -0.2, "unit": "pg/mL"}, {"measurement": "TNFα Mean change from baseline at Week 12", "setting": "TNF-α; [3]", "value": 0.3, "unit": "pg/mL"}, {"measurement": "TNFα Mean change from baseline at Week 4", "setting": "TNF-α; [4]", "value": -1.7, "unit": "pg/mL"}, {"measurement": "TNFα Mean change from baseline at Week 12", "setting": "TNF-α; [5]", "value": -2.2, "unit": "pg/mL"}, {"measurement": "TNFα Mean change from baseline at Week 4", "setting": "TNF-α; [6]", "value": 1.0, "unit": "pg/mL"}, {"measurement": "TNFα Mean change from baseline at Week 12", "setting": "TNF-α; [7]", "value": -1.0, "unit": "pg/mL"}, {"measurement": "TNFα Mean change from baseline at Week 4", "setting": "TNF-α; [8]", "value": 0.0, "unit": "pg/mL"}, {"measurement": "TNFα Mean change from baseline at Week 12", "setting": "TNF-α; [9]", "value": -1.2, "unit": "pg/mL"}, {"measurement": "IFNγ Mean change from baseline at Week 4", "setting": "IFNγ; [2]", "value": 1.6, "unit": "pg/mL"}, {"measurement": "IFNγ Mean change from baseline at Week 12", "setting": "IFNγ; [3]", "value": -3.4, "unit": "pg/mL"}, {"measurement": "IFNγ Mean change from baseline at Week 4", "setting": "IFNγ; [4]", "value": -3.3, "unit": "pg/mL"}, {"measurement": "IFNγ Mean change from baseline at Week 12", "setting": "IFNγ; [5]", "value": -5.8, "unit": "pg/mL"}, {"measurement": "IFNγ Mean change from baseline at Week 4", "setting": "IFNγ; [6]", "value": -3.8, "unit": "pg/mL"}, {"measurement": "IFNγ Mean change from baseline at Week 12", "setting": "IFNγ; [7]", "value": -6.6, "unit": "pg/mL"}, {"measurement": "IFNγ Mean change from baseline at Week 4", "setting": "IFNγ; [8]", "value": 0.5, "unit": "pg/mL"}, {"measurement": "IFNγ Mean change from baseline at Week 12", "setting": "IFNγ; [9]", "value": -3.1, "unit": "pg/mL"}, {"measurement": "safety profile", "setting": "[1]; in particular regarding anemia, lymphocytes, neutrophils, hemoglobin", "value": "remarkable safety profile"}, {"measurement": "efficacy in phase II", "setting": "[1]; rheumatoid arthritis, inflammatory bowel diseases, in particular Crohn's disease", "value": "remarkable efficacy"}, {"measurement": "IL-5 Mean change from baseline at Week 4", "setting": "IL-5; [2]", "value": -18.2, "unit": "pg/mL"}, {"measurement": "IL-5 Mean change from baseline at Week 12", "setting": "IL-5; [3]", "value": -18.1, "unit": "pg/mL"}, {"measurement": "IL-5 Mean change from baseline at Week 4", "setting": "IL-5; [4]", "value": -0.8, "unit": "pg/mL"}, {"measurement": "IL-5 Mean change from baseline at Week 12", "setting": "IL-5; [5]", "value": -1.5, "unit": "pg/mL"}, {"measurement": "IL-5 Mean change from baseline at Week 4", "setting": "IL-5; [6]", "value": -0.2, "unit": "pg/mL"}, {"measurement": "IL-5 Mean change from baseline at Week 12", "setting": "IL-5; [7]", "value": -0.7, "unit": "pg/mL"}, {"measurement": "IL-5 Mean change from baseline at Week 4", "setting": "IL-5; [8]", "value": 0.1, "unit": "pg/mL"}, {"measurement": "IL-5 Mean change from baseline at Week 12", "setting": "IL-5; [9]", "value": 0.0, "unit": "pg/mL"}, {"measurement": "IL-2 Mean change from baseline at Week 4", "setting": "IL-2; [2]", "value": -0.2, "unit": "pg/mL"}, {"measurement": "IL-2 Mean change from baseline at Week 12", "setting": "IL-2; [3]", "value": -1.9, "unit": "pg/mL"}, {"measurement": "IL-2 Mean change from baseline at Week 4", "setting": "IL-2; [4]", "value": -2.3, "unit": "pg/mL"}, {"measurement": "IL-2 Mean change from baseline at Week 12", "setting": "IL-2; [5]", "value": -4.1, "unit": "pg/mL"}, {"measurement": "IL-2 Mean change from baseline at Week 4", "setting": "IL-2; [6]", "value": -1.9, "unit": "pg/mL"}, {"measurement": "IL-2 Mean change from baseline at Week 12", "setting": "IL-2; [7]", "value": -3.5, "unit": "pg/mL"}, {"measurement": "IL-2 Mean change from baseline at Week 4", "setting": "IL-2; [8]", "value": -2.0, "unit": "pg/mL"}, {"measurement": "IL-2 Mean change from baseline at Week 12", "setting": "IL-2; [9]", "value": -3.3, "unit": "pg/mL"}, {"measurement": "MIP-1α Mean change from baseline at Week 4", "setting": "MIP-1α; [2]", "value": 1.0, "unit": "pg/mL"}, {"measurement": "MIP-1α Mean change from baseline at Week 12", "setting": "MIP-1α; [3]", "value": 8.5, "unit": "pg/mL"}, {"measurement": "MIP-1α Mean change from baseline at Week 4", "setting": "MIP-1α; [4]", "value": -3.1, "unit": "pg/mL"}, {"measurement": "MIP-1α Mean change from baseline at Week 12", "setting": "MIP-1α; [5]", "value": -5.2, "unit": "pg/mL"}, {"measurement": "MIP-1α Mean change from baseline at Week 4", "setting": "MIP-1α; [6]", "value": 7.0, "unit": "pg/mL"}, {"measurement": "MIP-1α Mean change from baseline at Week 12", "setting": "MIP-1α; [7]", "value": 9.1, "unit": "pg/mL"}, {"measurement": "MIP-1α Mean change from baseline at Week 4", "setting": "MIP-1α; [8]", "value": -1.6, "unit": "pg/mL"}, {"measurement": "MIP-1α Mean change from baseline at Week 12", "setting": "MIP-1α; [9]", "value": -2.6, "unit": "pg/mL"}, {"measurement": "IL-17α Mean change from baseline at Week 4", "setting": "IL-17A; [2]", "value": -4.4, "unit": "pg/mL"}, {"measurement": "IL-17α Mean change from baseline at Week 12", "setting": "IL-17A; [3]", "value": -3.3, "unit": "pg/mL"}, {"measurement": "IL-17α Mean change from baseline at Week 4", "setting": "IL-17A; [4]", "value": 3.9, "unit": "pg/mL"}]}]}
